Like-named read-outs stand apart in the source and are kept apart here. Some results are limits rather than exact numbers.

The IC10 is the concentration needed for an effect of 10%. The term IC90 denotes the concentration at which the effect reaches the 90% level. Low values mean greater potency, high ones weaker potency.

Data set [1] concerns P. falciparum gametocytes (stage III-IV). Nature of the data set: Gametocyte viability assay (MitoTracker, flow cytometry). It is filed as cell-based, Plasmodium falciparum. The conditions noted are these: for IC50: Plasmodium falciparum, 48 h, read-out: IC50, gametocyte viability. The source says:
Gametocyte assays begun eight days post-invasion (Stage III-IV).
(§1) Growth inhibition data were normalised by subtracting background fluorescence, luminescence, absorbance, or percentage of cells from a no-growth or no-viability control (high drug concentration, no-parasite control, or time=0 measurement as specified), and expressed as a percentage of the growth or cell percentage in the negative control (culture media alone or solvent control) at the indicated timepoint (or to the highest measurement reached during the assay for FIG. 15B).
On the technique in general: A flow cytometer gives signals particle by particle.

The test system of data set [2] is human foreskin fibroblasts (HFF). Nature of the data set: HFF growth inhibition assay (SYBR Safe). It is filed as cell-based. As to the method:
Cells were incubated with a serial dilution of each compound, or media/DMSO alone. The protein synthesis inhibitor cycloheximide (10 μg/mL) was used as a positive control to determine background fluorescence. Approximately 5000 cells were seeded in each well. […] Plates were transferred to a −18° C. freezer. […] Fluorescence was read at 490 nm excitation/520 nm emission on a FLUOstar Optima fluorescence plate reader.
HFF cell growth inhibition assays began with 5000 cells per well. 10 μg/mL cycloheximide was used as a no-growth control.

The test system of the next data set is Leishmania tarentolae. Nature of the data set: Leishmania tarentolae growth inhibition. The conditions noted are these: 72 hours, FIG. 22. It is filed as cell-based.
For data set [3], the system named is P. falciparum CAM3.II (mutated Kelch-13, resistant). Nature of the data set: Ring stage survival assay, resistant strain. It is filed as cell-based, Plasmodium falciparum. The conditions noted are these: 700 nM for six hours, then 66 hours without drug; for Parasite survival (DNA replication): FIG. 17B. The source says: (§2) The inventors tested these compounds in a ring stage survival assay, which allows the detection of resistant parasites against this […] drug and is the standard method for investigating resistance to artemisinin and its derivatives (Witkowski B, Menard D, Amaratunga C. Fairhurst R. Ring-stage Survival Assays (RSA) to evaluate the in-vitro and ex-vivo susceptibility of Plasmodium falciparum to artemisinins Procedure. Inst Pasteur du Cambodge—Natl Institutes Heal [Internet]. 2013 Sep. 11 [cited 2022 Jun. 19]; Procedure; available from: https://www.wwarn.org/sites/default/files/INV10-Standard-Operating-Procedure-Ring-Stage-Survival-Assays.pdf). This assay involves a short treatment window against newly-invaded ring stage parasites, followed by removal of drug pressure to mimic the clearance of the drug from plasma. We utilised two parasite strains: an isolate from Cambodia (CAM3.II) with a mutated Kelch-13 conferring resistance, and a genetically modified revertant of this strain (CAM3.IIREV) conferring drug susceptibility (Straimer J, Gnädig N F, Witkowski B, Amaratunga C, Duru V, Ramadani A P, et al. K13-propeller mutations confer artemisinin resistance in Plasmodium falciparum clinical isolates. Science (80-) [Internet]. 2015 Jan. 23 [cited 2022 Jun. 19]; 347(6220):428-31; available from: https://www.science.org/doi/10.1126/science.1260867).
(§3) Following tight synchronisation, CAM3.II and CAM3.IIREV ring stage parasites (0-3 hours post invasion) at 1% parasitaemia and 2% haematocrit were incubated with 700 nM of compounds or solvent-only controls for exactly six hours, before removing the drug, thoroughly washing in RPMI, and returning to culture conditions for a further 66 hours. Some cells were treated with 700 nM artesunate for 72 hours as a no-growth control. DNA replication (indicating growth) was measured at the specified time using SYBR Safe DNA Gel Stain. Microscope slide smears of each condition were stained with 10% v/v Giemsa and examined under a light microscope (1 000× magnification); with ‘viable’ (morphologically normal) and ‘non-viable’ (morphologically aberrant; vacuolated or pyknotic) parasites distinguished according to standard protocol (Witkowski B, Menard D, Amaratunga C, Fairhurst R. Ring-stage Survival Assays (RSA) to evaluate the in-vitro and ex-vivo susceptibility of Plasmodium falciparum to artemisinins Procedure. Inst Pasteur du Cambodge—Natl Institutes Heal [Internet]. 2013 Sep. 11 [cited 2022 Jun. 19]; Procedure. Available from: https://www.wwam.org/sites/default/files/INV10-Standard-Operating-Procedure-Ring-Stage-Survival-Assays.pdf). Images were captured using a Leica ICC50 camera, with a resolution of 76 nm per pixel.

Data set [4] concerns P. falciparum CAM3.IIREV (susceptible). Nature of the data set: Ring stage survival assay, susceptible revertant strain. It is filed as cell-based, Plasmodium falciparum. As to conditions: 700 nM for six hours, then 66 hours without drug.
Excerpt: as §2, §3

Data set [5] deals with human hepatoma cells (Huh7). As to the kind of experiment: Huh7 hepatoma viability assay (CellTiter-Blue). The conditions noted are these: 48 hours; effect on cellular integrity / modest cytotoxicity. It is filed as cell-based. Here is the method: Huh7 hepatoma viability assays were conducted in the same manner as the P. berghei assays, with metabolic capacity (indicating viability) measured by incubation with CellTiter-Blue® (Promega) for 3 hours.
(In general: Resazurin is reduced to fluorescent resorufin, in cell work by metabolically active cells.)

Data set [6] can be described thus: HEK293 cell viability assay (MTT). It is filed as cell-based, human. The conditions noted are these: human; 96 hours, FIG. 16H / FIG. 18C; read-out: IC50, HEK293 cytotoxicity. Here is the method: HEK293 cell viability assays began with 5000 cells per well. 10 μg/mL cycloheximide was used as a no-growth control. Metabolic capacity (indicating viability) was measured by incubation with 0.45 mg/mL methylthiazolyldiphenyl-tetrazolium bromide (MTT; Sigma M2128) for two hours followed by crystal solubilisation in SDS.

Another data set relates to asexual P. falciparum. Nature of the data set: Plasmodium growth inhibition assay (SYBR Safe), asexual stages. The format is cell-based, Plasmodium falciparum. As to the method: Compounds or solvent controls (DMSO, ethanol, or ethyl acetate) were serially diluted 2-fold across flat-bottom 96-well plates. Complete culture media without compound was used as a negative control. Chloroquine (100-200 nM) {Sigma C6628} was used as a positive control to determine background fluorescence. The parasitaemia of a culture containing predominantly ring stage parasites was counted by Giemsa smear. The parasitaemia was adjusted to 1% by addition of fresh uRBCs, and added to the plate at a final haematocrit of 1%, with 200 μL per well. The plates were incubated at 37° C. under humid microaerophilic conditions. […] Fluorescence was read at 490 nm excitation/520 nm emission on a FLUOstar Optima fluorescence plate reader {BMG Labtech}.
Growth inhibition data were normalised by subtracting background fluorescence from a no-growth control (high drug concentration or time=0 measurement as specified), and expressed as a percentage of the growth in the negative control (media alone or solvent control) either at the indicated timepoint, or to the highest measurement reached during the assay.
P. falciparum asexual parasite assays begun with ring-stage parasites at 1% parasitaemia and 1% haematocrit. 200 nM chloroquine (Sigma C6628) was used as a no-growth control. […] 17]; 8 (2):e54974).
as §1

A further data set deals with P. berghei liver stages. Nature of the data set: P. berghei liver stage growth assay (luciferase) in Huh7 cells. The format is cell-based, Plasmodium berghei. As to conditions: Plasmodium berghei, Huh-7; 48 hours of treatment from sporozoite inoculation, Huh7 cells, FIG. 16A. As to the method:
(§4) Huh7 cells were seeded at a density of 10 000 cells per well, or 20 000 per collagen-coated coverslip. […] Uninfected wells served as a control for background luminescence. […] Data are presented as a percentage of the size or parasite number of the solvent control to normalize for differences between experiments. For cell images presented in the figure, images were collected under optimal exposure settings to ensure features were visible. Individual cells were cropped from larger images with Fiji ImageJ, and the brightness was adjusted while ensuring that no fluorescence was removed. No other manipulations were performed.
as §1

Data set [7] deals with P. berghei liver stage schizonts. Nature of the data set: P. berghei liver stage parasite size and number (fluorescence microscopy) in Huh7 cells. It is filed as cell-based, Plasmodium berghei. The conditions noted are these: 3 μM, 48 hours post-infection, vs DMSO. Here is the method: as §4
The test system of data set [8] is Toxoplasma gondii tachyzoites. Nature of the data set: Toxoplasma growth inhibition assay (tdTomato fluorescence). The conditions noted are these: Toxoplasma gondii, 72 h, read-out: IC5 against T. gondii. The format is cell-based. Here is the method:
Fluorescent Toxoplasma gondii parasites were inoculated into an optical bottom 96-well plate containing confluent human foreskin fibroblast (HFF) host cells at a density of 2000 parasites/well, with a serial dilution of each compound, or media/DMSO alone. Plates were measured daily with a FluoStar Optima fluorescence plate reader at 540 nm excitation/590 nm emission for seven days, and the background fluorescence from the time 0 reading was subtracted from all other measurements.
Fluorescence was measured daily with a FluoStar Optima fluorescence plate reader for one week, and the background fluorescence from the time 0 reading was subtracted from all other measurements.
as §1

Regarding `COc1cc(NC(C)CCCNC(=O)CCC(=O)O[C@H]2CC[C@H]3[C@@H]4CC=C5C[C@@H](O)CC[C@]5(C)[C@H]4CC[C@]23C)c2ncccc2c1` (some centres unmarked) [BC5B], in [1] (FIG. 9C), the “Susceptibility of early (I-III) and late stage (III-IV) gametocytes” value was “both early (A) and late-stage (B) gametocytes are equally susceptible”. Besides, in [2] (72 hrs), the “Maximal inhibition of HFF growth at the range of concentrations tested” value was ≤ 50%. Also, the IC50 result with Leishmania tarentolae is given as “higher efficacy than primaquine”.
Turning to `CC(C)(C)OOCCO[C@H]1CC[C@H]2[C@@H]3CC=C4C[C@@H](O)CC[C@]4(C)[C@H]3CC[C@]12C` [BC86D], the IC50 with Leishmania tarentolae (Leishmania tarentolae, read-out: IC50) is < 1 µM.
For `C[C@H]1[C@H](OC(=O)CCC(=O)O[C@H]2CC[C@H]3[C@@H]4CC=C5C[C@@H](O)CC[C@]5(C)[C@H]4CC[C@]23C)O[C@@H]2O[C@]3(C)CC[C@H]4[C@H](C)CC[C@@H]1[C@@]24OO3` [C-17-art, 3β-Hydroxyandrost-5-en-17β-yl succinate-artesunate ester], the “Morphology in Giemsa-stained smears” value in [3] is given as “only aberrant, non-viable parasites were visible”; in data set [4], “only morphologically aberrant parasites were present”. Further, the “Parasite survival (DNA replication)” value in data set [3] is “kills all cells”.
On to `CC(C)OC(=O)CCC(=O)O[C@H]1CC[C@H]2[C@@H]3CC=C4C[C@@H](O)CC[C@]4(C)[C@H]3CC[C@]12C` [C-17-link, 3β-Hydroxyandrost-5-en-17β-yl succinate-propan-2-yl diester], for which, in data set [1], the IC50 is > 100 µM. Besides, the “Concentration at which cytotoxic effect was detected” value in [5] is > 30 µM. In addition, in data set [2] (72 hours, FIG. 16G), the “IC50, fibroblast growth” value is “no notable inhibition was observed”. Also, the IC50 at 96 h in data set [6] was 43.6 µM. Besides, in data set [3], the “Parasite survival (DNA replication)” value is “did not significantly impact on the growth of either strain”. Moreover, in data set [4] (FIG. 17B), the “Parasite survival / growth inhibition (DNA replication)” value is recorded as “did not significantly impact on the growth of either strain”.
On to `CC(C)OC(=O)CCC(=O)O[C@@H]1O[C@@H]2O[C@]3(C)CC[C@H]4[C@H](C)CC[C@@H]([C@H]1C)[C@@]24OO3` [art-link, Propan-2-yl artesunate ester], for which, in data set [3], the “Morphology in Giemsa-stained smears” value is “a combination of morphologically normal parasites and morphologically aberrant pyknotic or vacuolated forms”; the “Parasite survival (DNA replication)” value is on record as “showed a trend to improved efficacy over artesunate”. For the same compound, the “Morphology in Giemsa-stained smears” value in data set [4] is listed as “only morphologically aberrant parasites were present”.
As to `COc1cc(NC(C)CCCN)c2ncccc2c1` (centres unmarked) [primaquine, reference compound], the “Hill slope of inhibitory curve” value is −1.65 with asexual P. falciparum (24 hours) and −1.48 in the data set with asexual P. falciparum (72 hours). Besides, in the data set on asexual P. falciparum (FIG. 8B, Example 2), the IC10 amounted to 12 µM. The same compound displayed an IC90 with asexual P. falciparum (Plasmodium falciparum, 24 h) of 41 µM. The IC50 turned out to be 3.2 µM with asexual P. falciparum (Plasmodium falciparum, 72 h); 63.5 µM in [1]; 2.9 µM in the data set with P. berghei liver stages; 9.7 µM in [8]. The “Smaller parasite size (reduction)” value in data set [7] was found to be 61%. Moreover, the IC50 at 96 h in [6] was determined as 10.6 µM.

Values taken from patent publication US20250099488A1, “ANTI-PARASITE COMPOUNDS” (AUSTRALIAN NATIONAL UNIVERSITY, priority 2022, published 2025).
